Key:
Histone deacetylase 1 [1] = target: T1, Histone deacetylase 1 (Homo sapiens, UniProt Q13547); assay: Inhibition of HDAC1 (unknown origin) by Fluor de Lys based assay
HMEC = assay: Cytotoxicity against human HMEC after 72 hrs by WST1 assay; format: cell-based
SK-BR-3 = assay: Cytotoxicity against human SK-BR-3 cells after 72 hrs by WST1 assay; format: functional
[2] = Therapeutic index, ratio of GI50 for human HMEC to GI50 for human SK-BR-3 cells; details: HMEC cells versus SK-BR-3 cells, read-out: RatioGI50
[3] = target: T2, Proto-oncogene tyrosine-protein kinase Src (Homo sapiens, UniProt P12931); assay: Inhibition of c-Src (unknown origin) by fluorescence assay
MDA-MB-231 = assay: Cytotoxicity against human MDA-MB-231 cells after 48 hrs by SRB assay; format: functional; details: MDA-MB-231, 48 h
Histone deacetylase 5 = Histone deacetylase 5 (Homo sapiens, UniProt Q9UQL6); assay: Inhibition of HDAC5 (unknown origin) using Boc-Lys(trifluoroacetyl)-AMC as substrate by fluorescence assay
Histone deacetylase 8 = Histone deacetylase 8 (Homo sapiens, UniProt Q9BY41); assay: Inhibition of HDAC8 (unknown origin) using fluorogenic peptide from p53 residues (379 to 382) (RHK(Ac)K(Ac)) as substrate by fluorescence assay
[4] = target: Tyrosine-protein kinase ABL1 (Homo sapiens, UniProt P00519); assay: Inhibition of c-Abl (unknown origin)
Histone deacetylase 3 = Histone deacetylase 3 (Homo sapiens, UniProt O15379); assay: Inhibition of HDAC3 (unknown origin) using fluorogenic peptide from p53 residues (379 to 382) (RHKK(Ac)) as substrate by fluorescence assay
[5] = target: Protein deacetylase HDAC6 (Homo sapiens, UniProt Q9UBN7); assay: Inhibition of HDAC6 (unknown origin) using fluorogenic peptide from p53 residues (379 to 382) (RHKK(Ac)) as substrate by fluorescence assay
Malme-3M = assay: Cytotoxicity against human MALME-3M cells after 48 hrs by SRB assay; format: functional
Histone deacetylase 1 [6] = target: T1, Histone deacetylase 1; assay: Inhibition of human recombinant HDAC1 using Ac-Leu-Gly-Lys(Ac)AMCA as substrate after 30 mins by fluorescence assay
MCF7 = assay: Cytotoxicity against human MCF7 cells after 48 hrs by SRB assay; format: functional; details: MCF7, 48 h
[7] = target: Polyamine deacetylase HDAC10 (Homo sapiens, UniProt Q969S8); assay: Inhibition of HDAC10 (unknown origin) using fluorogenic peptide from p53 residues (379 to 382) (RHKK(Ac)) as substrate by fluorescence assay
SW-620 = assay: Cytotoxicity against human SW620 cells after 48 hrs by SRB assay; format: functional; details: SW-620, 48 h
[8] = target: T2, Proto-oncogene tyrosine-protein kinase Src; assay: Inhibition of c-Src (unknown origin) after 10 mins by fluorimetric assay
Hs-578T = assay: Cytotoxicity against human Hs578T cells after 48 hrs by SRB assay; format: functional
Histone deacetylase 9 = Histone deacetylase 9 (Homo sapiens, UniProt Q9UKV0); assay: Inhibition of HDAC9 (unknown origin) using Boc-Lys(trifluoroacetyl)-AMC as substrate by fluorescence assay
Histone deacetylase 1 [9] = target: T1, Histone deacetylase 1; assay: Inhibition of HDAC1 (unknown origin) using fluorogenic peptide from p53 residues (379 to 382) (RHKK(Ac)) as substrate by fluorescence assay
[10] = Cytotoxicity against human NCI60 cells after 48 hrs by SRB assay; format: functional; details: NCI60, 48 h
KM12 = assay: Cytotoxicity against human KM12 cells after 48 hrs by SRB assay; format: functional; details: KM12, 48 h
[11] = target: Tyrosine-protein kinase HCK (Homo sapiens, UniProt P08631); assay: Inhibition of HCK (unknown origin)
Histone deacetylase 4 = Histone deacetylase 4 (Homo sapiens, UniProt P56524); assay: Inhibition of HDAC4 (unknown origin) using Boc-Lys(trifluoroacetyl)-AMC as substrate by fluorescence assay
HCT-116 = assay: Cytotoxicity against human HCT116 cells after 48 hrs by SRB assay; format: functional; details: HCT-116, 48 h
DU-145 = assay: Cytotoxicity against human DU145 cells after 48 hrs by SRB assay; format: functional; details: DU-145, 48 h
Histone deacetylase 11 = Histone deacetylase 11 (Homo sapiens, UniProt Q96DB2); assay: Inhibition of HDAC11 (unknown origin) using fluorogenic peptide from p53 residues (379 to 382) (RHKK(Ac)) as substrate by fluorescence assay
Histone deacetylase 2 = Histone deacetylase 2 (Homo sapiens, UniProt Q92769)
U-251 = assay: Cytotoxicity against human U251 cells after 48 hrs by SRB assay; format: functional; details: U-251, 48 h

T2 sequence (P12931 2-536 limits assumed): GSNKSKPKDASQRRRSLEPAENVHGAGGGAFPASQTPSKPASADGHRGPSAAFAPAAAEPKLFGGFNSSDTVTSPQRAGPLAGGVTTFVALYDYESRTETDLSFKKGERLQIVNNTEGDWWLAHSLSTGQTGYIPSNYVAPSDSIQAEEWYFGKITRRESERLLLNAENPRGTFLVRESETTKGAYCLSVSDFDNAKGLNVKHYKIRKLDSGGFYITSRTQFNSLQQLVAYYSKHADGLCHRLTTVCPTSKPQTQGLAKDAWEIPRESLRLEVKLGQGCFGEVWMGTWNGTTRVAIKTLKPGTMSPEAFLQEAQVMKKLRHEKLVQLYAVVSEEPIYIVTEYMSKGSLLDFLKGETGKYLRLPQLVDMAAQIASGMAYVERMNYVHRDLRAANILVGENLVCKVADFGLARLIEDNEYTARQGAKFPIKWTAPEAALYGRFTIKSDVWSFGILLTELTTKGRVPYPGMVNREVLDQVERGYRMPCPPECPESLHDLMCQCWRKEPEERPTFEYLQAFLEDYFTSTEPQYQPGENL
T1 sequence (Q13547 whole entry): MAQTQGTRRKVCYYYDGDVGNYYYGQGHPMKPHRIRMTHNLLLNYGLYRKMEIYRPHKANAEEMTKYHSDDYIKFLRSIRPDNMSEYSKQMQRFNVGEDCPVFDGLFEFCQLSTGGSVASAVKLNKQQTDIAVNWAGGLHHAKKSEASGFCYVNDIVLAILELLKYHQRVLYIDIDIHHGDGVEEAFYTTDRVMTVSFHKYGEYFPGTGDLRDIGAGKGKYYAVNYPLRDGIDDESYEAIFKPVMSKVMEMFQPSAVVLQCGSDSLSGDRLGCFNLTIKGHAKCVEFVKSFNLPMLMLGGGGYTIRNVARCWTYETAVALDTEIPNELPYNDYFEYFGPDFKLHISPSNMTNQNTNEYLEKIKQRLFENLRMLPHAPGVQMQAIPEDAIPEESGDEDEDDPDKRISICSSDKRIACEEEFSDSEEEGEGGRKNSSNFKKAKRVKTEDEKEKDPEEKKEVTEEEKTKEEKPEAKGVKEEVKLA
Sequence of Histone deacetylase 4 (P56524 whole entry): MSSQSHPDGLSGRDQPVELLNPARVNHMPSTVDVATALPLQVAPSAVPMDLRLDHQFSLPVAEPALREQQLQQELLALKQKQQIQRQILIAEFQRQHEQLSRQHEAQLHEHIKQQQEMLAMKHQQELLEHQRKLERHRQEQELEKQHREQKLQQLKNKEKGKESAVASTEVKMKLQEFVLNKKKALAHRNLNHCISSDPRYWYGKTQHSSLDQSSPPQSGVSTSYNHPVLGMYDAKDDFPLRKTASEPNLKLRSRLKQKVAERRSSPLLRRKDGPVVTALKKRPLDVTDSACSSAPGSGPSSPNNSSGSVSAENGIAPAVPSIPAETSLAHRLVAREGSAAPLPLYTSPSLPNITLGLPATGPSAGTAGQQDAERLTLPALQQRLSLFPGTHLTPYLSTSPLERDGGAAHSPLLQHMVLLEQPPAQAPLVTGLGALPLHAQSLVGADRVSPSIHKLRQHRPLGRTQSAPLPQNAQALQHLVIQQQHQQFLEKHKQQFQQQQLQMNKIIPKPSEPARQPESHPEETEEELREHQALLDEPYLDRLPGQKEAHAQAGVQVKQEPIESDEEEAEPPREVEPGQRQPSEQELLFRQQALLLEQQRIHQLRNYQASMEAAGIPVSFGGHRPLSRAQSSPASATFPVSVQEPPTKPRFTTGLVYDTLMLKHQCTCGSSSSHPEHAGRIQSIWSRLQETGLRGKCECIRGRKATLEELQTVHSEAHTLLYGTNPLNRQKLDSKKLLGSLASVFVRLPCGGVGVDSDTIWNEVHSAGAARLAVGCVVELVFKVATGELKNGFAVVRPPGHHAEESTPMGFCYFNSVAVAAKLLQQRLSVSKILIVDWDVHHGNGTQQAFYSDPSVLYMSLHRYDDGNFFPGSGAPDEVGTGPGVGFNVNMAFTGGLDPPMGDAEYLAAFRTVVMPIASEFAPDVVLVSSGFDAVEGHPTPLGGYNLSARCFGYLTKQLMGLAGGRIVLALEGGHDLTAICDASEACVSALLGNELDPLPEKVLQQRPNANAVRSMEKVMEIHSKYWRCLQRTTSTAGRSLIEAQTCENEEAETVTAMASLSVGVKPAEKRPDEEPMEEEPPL
Sequence of Histone deacetylase 9 (Q9UKV0 whole entry, the tested form may be a part): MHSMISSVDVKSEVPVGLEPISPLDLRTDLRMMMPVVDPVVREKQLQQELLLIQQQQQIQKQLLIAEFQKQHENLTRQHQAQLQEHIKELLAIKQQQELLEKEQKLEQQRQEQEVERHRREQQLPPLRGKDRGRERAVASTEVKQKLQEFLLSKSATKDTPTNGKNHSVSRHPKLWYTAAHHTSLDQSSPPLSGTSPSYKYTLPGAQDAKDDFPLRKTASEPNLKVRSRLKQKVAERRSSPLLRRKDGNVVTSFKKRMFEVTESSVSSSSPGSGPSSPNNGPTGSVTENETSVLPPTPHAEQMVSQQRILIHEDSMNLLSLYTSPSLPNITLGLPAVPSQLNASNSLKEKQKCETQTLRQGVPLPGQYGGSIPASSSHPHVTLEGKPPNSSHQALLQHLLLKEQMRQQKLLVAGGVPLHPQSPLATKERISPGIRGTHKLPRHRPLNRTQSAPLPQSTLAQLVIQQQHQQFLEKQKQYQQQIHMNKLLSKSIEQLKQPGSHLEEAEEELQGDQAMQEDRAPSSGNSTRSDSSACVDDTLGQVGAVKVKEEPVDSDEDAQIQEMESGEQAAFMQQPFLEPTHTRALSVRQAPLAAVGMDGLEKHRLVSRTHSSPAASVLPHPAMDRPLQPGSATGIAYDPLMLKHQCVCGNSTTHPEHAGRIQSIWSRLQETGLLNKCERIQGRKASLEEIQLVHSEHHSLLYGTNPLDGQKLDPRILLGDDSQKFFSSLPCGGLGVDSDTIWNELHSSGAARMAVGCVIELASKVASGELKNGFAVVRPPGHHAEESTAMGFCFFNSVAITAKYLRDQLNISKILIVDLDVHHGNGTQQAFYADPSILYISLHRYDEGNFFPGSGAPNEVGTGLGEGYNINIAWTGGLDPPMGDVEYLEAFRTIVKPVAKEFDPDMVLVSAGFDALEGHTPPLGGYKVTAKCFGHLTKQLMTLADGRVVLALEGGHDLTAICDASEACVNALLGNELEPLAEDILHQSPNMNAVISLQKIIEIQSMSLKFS
Sequence of Tyrosine-protein kinase ABL1 (P00519 whole entry, the tested form may be a part): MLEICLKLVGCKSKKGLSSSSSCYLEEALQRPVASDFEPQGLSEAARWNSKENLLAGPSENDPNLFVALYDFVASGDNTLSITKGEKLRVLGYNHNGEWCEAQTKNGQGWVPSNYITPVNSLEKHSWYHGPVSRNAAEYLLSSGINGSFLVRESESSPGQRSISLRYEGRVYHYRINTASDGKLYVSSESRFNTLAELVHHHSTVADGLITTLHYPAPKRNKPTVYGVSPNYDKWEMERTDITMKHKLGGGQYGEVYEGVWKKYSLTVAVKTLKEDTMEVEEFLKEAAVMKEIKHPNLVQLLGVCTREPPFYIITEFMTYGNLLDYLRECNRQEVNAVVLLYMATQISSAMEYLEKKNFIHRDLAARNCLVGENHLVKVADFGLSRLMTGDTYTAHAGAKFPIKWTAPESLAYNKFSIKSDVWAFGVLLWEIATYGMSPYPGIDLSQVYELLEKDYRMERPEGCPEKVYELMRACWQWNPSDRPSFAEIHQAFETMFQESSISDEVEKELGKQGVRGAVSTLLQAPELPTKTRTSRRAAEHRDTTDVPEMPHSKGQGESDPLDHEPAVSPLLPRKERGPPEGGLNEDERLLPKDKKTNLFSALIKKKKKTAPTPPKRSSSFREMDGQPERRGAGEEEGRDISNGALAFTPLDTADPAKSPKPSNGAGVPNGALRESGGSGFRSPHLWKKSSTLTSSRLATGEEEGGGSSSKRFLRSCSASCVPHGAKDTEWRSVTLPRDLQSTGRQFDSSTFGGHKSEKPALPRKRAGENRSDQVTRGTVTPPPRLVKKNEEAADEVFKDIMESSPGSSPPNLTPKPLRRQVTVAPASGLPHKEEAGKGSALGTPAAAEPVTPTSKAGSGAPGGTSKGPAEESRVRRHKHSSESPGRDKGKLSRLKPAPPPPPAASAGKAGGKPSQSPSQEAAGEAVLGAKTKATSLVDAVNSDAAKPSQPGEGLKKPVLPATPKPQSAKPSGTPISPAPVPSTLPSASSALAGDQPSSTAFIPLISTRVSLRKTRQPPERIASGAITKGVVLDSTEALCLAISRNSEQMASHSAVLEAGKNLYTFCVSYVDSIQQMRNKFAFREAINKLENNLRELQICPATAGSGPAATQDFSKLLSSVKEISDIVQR
Sequence of Histone deacetylase 2 (Q92769 whole entry): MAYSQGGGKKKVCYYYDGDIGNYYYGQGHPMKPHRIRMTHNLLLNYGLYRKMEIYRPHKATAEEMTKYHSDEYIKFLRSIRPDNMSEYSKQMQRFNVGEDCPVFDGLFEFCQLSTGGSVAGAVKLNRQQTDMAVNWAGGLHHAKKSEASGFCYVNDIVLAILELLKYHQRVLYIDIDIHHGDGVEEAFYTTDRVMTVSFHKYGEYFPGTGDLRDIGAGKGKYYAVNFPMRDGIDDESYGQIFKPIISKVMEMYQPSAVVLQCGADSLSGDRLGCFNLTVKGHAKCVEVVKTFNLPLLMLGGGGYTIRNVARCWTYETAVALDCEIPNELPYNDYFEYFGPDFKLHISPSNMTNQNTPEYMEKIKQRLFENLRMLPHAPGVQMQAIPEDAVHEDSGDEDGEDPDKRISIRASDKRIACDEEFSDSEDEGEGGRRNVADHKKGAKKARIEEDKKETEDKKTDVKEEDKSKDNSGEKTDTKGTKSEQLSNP
Sequence of Histone deacetylase 11 (Q96DB2 whole entry, the tested form may be a part): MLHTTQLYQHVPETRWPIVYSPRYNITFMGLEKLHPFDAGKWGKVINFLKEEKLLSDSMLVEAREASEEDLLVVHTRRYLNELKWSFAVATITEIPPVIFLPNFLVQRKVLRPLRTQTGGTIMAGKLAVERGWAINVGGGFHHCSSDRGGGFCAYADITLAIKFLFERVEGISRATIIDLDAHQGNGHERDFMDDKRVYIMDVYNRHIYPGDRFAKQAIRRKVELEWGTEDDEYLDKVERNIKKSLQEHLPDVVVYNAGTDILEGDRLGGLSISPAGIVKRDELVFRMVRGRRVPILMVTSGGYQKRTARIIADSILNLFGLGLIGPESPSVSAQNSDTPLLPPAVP

## O=C(CCCCCn1nncc1-c1ccccc1)NO
Histone deacetylase 1 [1]
  Ki: 45 nM

## Nc1ncnc2c1c(-c1ccc(Cl)cc1)nn2-c1cccc(-c2cnnn2Cc2cccc(-c3ccccc3)c2)c1
HMEC
  GI50: 4300 nM
SK-BR-3; Homo sapiens, SK-BR-3, 72 h
  GI50: 4800 nM
[2]
  selectivity ratio: 0.9

## Nc1ncnc2c1c(-c1ccc(Cl)cc1)nn2-c1cccc(-c2cn(CCCCCC(=O)NO)nn2)c1
Histone deacetylase 1 [1]
  Ki: 0.62 nM
[3]
  Ki: 371 nM

## Nc1ncnc2c1c(-c1ccc(Cl)cc1)nn2-c1cccc(-c2cnnn2CCCCCC(=O)NO)c1
MDA-MB-231
  GI50: 390 nM
Histone deacetylase 5
  IC50: 3890 nM
Histone deacetylase 8
  IC50: 2310 nM
[4]
  Ki: 2350 nM
Histone deacetylase 3
  IC50: 19 nM
[5]
  IC50: 2.7 nM
Malme-3M
  GI50: 70 nM
Histone deacetylase 1 [6]
  Ki: 0.26 nM
MCF7
  GI50: 350 nM
HMEC
  GI50: 4700 nM
[7]
  IC50: 51 nM
SK-BR-3; Homo sapiens, SK-BR-3, 72 h
  GI50: 200 nM
SW-620
  GI50: 250 nM
[8]
  Ki: 138 nM
Hs-578T
  GI50: 170 nM
Histone deacetylase 1 [1]
  Ki: 0.26 nM
Histone deacetylase 9
  IC50: 28000 nM
Histone deacetylase 1 [9]
  IC50: 86 nM
[10]
  GI50: 260 nM
KM12
  GI50: 470 nM
[11]
  Ki: 504 nM
Histone deacetylase 4
  IC50: 3980 nM
HCT-116
  GI50: 220 nM
DU-145
  GI50: 390 nM
Histone deacetylase 11
  IC50: 224 nM
Histone deacetylase 2
  IC50: 231 nM
U-251
  GI50: 280 nM
[3]
  Ki: 138 nM

## Nc1ncnc2c1c(-c1ccc(Cl)cc1)nn2-c1cccc(-c2cnnn2CCCCCCC(=O)NO)c1
Histone deacetylase 1 [6]
  Ki: 0.82 nM
[8]
  Ki: 190 nM

## Nc1ncnc2c1c(-c1ccc(Cl)cc1)nn2-c1cccc(-c2cnnn2CCCCCCCC(=O)NO)c1
Histone deacetylase 1 [6]
  Ki: 9.8 nM

## Nc1ncnc2c1c(-c1ccc(Cl)cc1)nn2-c1cccc(-c2cnnn2Cc2ccc(/C=C/C(=O)NO)cc2)c1
Histone deacetylase 1 [6]
  Ki: 35 nM
[8]
  Ki: 4300 nM

## Nc1ncnc2c1c(-c1ccc(Cl)cc1)nn2-c1cccc(-c2cnnn2Cc2cccc(/C=C/C(=O)NO)c2)c1
Histone deacetylase 1 [6]
  Ki: 23 nM

## Nc1ncnc2c1c(-c1ccc(Cl)cc1)nn2-c1ccccc1
[3]
  Ki: 605 nM

## Cc1nc(Nc2ncc(C(=O)Nc3c(C)cccc3Cl)s2)cc(N2CCN(CCO)CC2)n1 [DASATINIB]
MDA-MB-231
  GI50: 20 nM
Malme-3M
  GI50: 6610 nM
MCF7
  GI50: 8320 nM
HMEC
  GI50: 1800 nM
SW-620
  GI50: 8430 nM
Hs-578T
  GI50: 30 nM
[10]
  GI50: 5700 nM
HCT-116
  GI50: 3700 nM
DU-145
  GI50: 160 nM
U-251
  GI50: 2810 nM

## O=C(CCCCCCC(=O)Nc1ccccc1)NO [VORINOSTAT]
HMEC
  GI50: 5800 nM
SK-BR-3
  GI50: 1200 nM

Source: ChEMBL document CHEMBL2406958, “Development of a chimeric c-Src kinase and HDAC inhibitor” (ACS Med Chem Lett, 2013)
